Measured values reported in ChEMBL document CHEMBL1139276, “Diarylimidazolyl oxadiazole and thiadiazole derivatives as cannabinoid CB1 receptor antagonists” (Bioorg Med Chem Lett, 2009).

Key:
[1] = biological target: Cannabinoid receptor 1 (Rattus norvegicus, UniProt P20272); assay: Displacement of [3H]CP-55940 from CB1 receptor in Sprague-Dawley rat cerebellar membrane; set-up: species or system Cerebellum
[2] = biological target: Cannabinoid receptor 2 (Homo sapiens, UniProt P34972); assay: Displacement of [3H]WIN-55212-2 from human CB2 receptor expressed in CHO cells; format: cell-based
Sequence of Cannabinoid receptor 2 (P34972 whole entry): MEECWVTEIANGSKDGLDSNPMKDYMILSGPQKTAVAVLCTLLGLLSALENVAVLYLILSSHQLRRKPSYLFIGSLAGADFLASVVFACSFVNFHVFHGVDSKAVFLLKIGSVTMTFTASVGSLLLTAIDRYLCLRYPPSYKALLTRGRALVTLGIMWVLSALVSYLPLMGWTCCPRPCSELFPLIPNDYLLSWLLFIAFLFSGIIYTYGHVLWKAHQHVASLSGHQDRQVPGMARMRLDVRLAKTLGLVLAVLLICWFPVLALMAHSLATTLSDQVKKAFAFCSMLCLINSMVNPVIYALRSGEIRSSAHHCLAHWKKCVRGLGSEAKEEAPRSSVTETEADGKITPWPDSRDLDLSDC

Sequence of Cannabinoid receptor 1 (P20272 whole entry): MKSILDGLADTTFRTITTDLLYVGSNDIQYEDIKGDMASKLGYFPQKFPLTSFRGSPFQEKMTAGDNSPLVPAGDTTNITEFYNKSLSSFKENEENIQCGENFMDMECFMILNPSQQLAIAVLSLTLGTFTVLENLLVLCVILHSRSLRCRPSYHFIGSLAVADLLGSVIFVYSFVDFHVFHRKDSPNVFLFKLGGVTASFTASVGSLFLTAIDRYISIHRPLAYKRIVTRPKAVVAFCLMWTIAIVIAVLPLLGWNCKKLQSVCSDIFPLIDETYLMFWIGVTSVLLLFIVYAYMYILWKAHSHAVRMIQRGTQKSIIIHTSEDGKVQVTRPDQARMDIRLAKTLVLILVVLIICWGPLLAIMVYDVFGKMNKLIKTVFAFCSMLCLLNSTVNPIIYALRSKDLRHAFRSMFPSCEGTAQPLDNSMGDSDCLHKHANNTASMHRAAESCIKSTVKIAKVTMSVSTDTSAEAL

Row | Compound | IC50 [1] [nM] | IC50 [2] [nM]
1 | Cc1c(-c2nnc(C(C)(C)C)s2)nc(-c2ccccc2Cl)n1-c1ccc(Cl)cc1 | 12.7 | –
2 | CCc1c(-c2nnc(C3(c4ccc(C)cc4)CC3)o2)nc(-c2ccc(Cl)cc2Cl)n1-c1ccc(Br)cc1 | – | > 10000
3 | CCc1c(-c2nnc(C3(c4ccc(Cl)cc4)CCC3)o2)nc(-c2ccc(Cl)cc2Cl)n1-c1ccc(Br)cc1 | – | > 10000
4 | Cc1c(-c2nnc(C3(c4ccc(Cl)cc4)CC3)s2)nc(-c2ccc(Cl)cc2Cl)n1-c1ccc(Cl)cc1 | 9.41 | –
5 | CCc1c(-c2nnc(C(C)(C)C)o2)nc(-c2ccccc2Cl)n1-c1ccc(Cl)cc1 | 21.3 | –
6 | CCc1c(-c2nnc(C3(c4ccc(OC)cc4)CC3)s2)nc(-c2ccc(Cl)cc2Cl)n1-c1ccc(Br)cc1 | – | > 10000
7 | CCc1c(-c2nnc(C3(c4ccc(Cl)cc4Cl)CC3)o2)nc(-c2ccc(Cl)cc2Cl)n1-c1ccc(Br)cc1 | – | > 10000
8 | Cc1c(-c2nnc(C(C)(C)C)o2)nc(-c2ccccc2Cl)n1-c1ccc(Cl)cc1 | 5.29 | –

Next, values leading:

Row | IC50 [1] [nM] | IC50 [2] [nM] | Compound
9 | 55.1 | – | Cc1c(-c2nnc(C3(C(F)(F)F)CC3)o2)nc(-c2ccc(Cl)cc2Cl)n1-c1ccc(Cl)cc1
10 | 33.5 | – | Cc1c(-c2nnc(C3(C(F)(F)F)CC3)s2)nc(-c2ccc(Cl)cc2Cl)n1-c1ccc(Cl)cc1
11 | – | > 10000 | CCc1c(-c2nnc(C3(c4ccc(Cl)cc4Cl)CC3)s2)nc(-c2ccc(Cl)cc2Cl)n1-c1ccc(Br)cc1
12 | – | > 10000 | CCc1c(-c2nnc(C3(c4ccccc4)CC3)s2)nc(-c2ccc(Cl)cc2Cl)n1-c1ccc(Br)cc1
13 | 28.1 | – | Cc1c(-c2nnc(CC(C)C)s2)nc(-c2ccc(Cl)cc2Cl)n1-c1ccc(Cl)cc1
14 | 39.4 | – | Cc1c(-c2nnc(CC(C)C)o2)nc(-c2ccc(Cl)cc2Cl)n1-c1ccc(Cl)cc1
15 | 15.2 | – | Cc1c(-c2nnc(C3(c4ccc(Cl)cc4)CC3)o2)nc(-c2ccc(Cl)cc2Cl)n1-c1ccc(Cl)cc1
16 | 9.66 | – | Cc1c(-c2nnc(C3(C(F)(F)F)CCC3)s2)nc(-c2ccc(Cl)cc2Cl)n1-c1ccc(Cl)cc1
17 | 16.7 | – | Cc1c(-c2nnc(C3(C(F)(F)F)CCC3)o2)nc(-c2ccc(Cl)cc2Cl)n1-c1ccc(Cl)cc1
18 | – | > 10000 | CCc1c(-c2nnc(C3(c4ccc(C)cc4)CC3)s2)nc(-c2ccc(Cl)cc2Cl)n1-c1ccc(Br)cc1
19 | – | > 10000 | CCc1c(-c2nnc(C3(c4ccc(Cl)cc4)CCC3)s2)nc(-c2ccc(Cl)cc2Cl)n1-c1ccc(Br)cc1
20 | – | > 10000 | CCc1c(-c2nnc(C3(c4ccc(Cl)cc4)CC3)s2)nc(-c2ccc(Cl)cc2Cl)n1-c1ccc(Br)cc1
